Measurements as given in ChEMBL document CHEMBL3862033 (J Med Chem, 2016).

Key:
[1] = biological target: 5-hydroxytryptamine receptor 4 (Homo sapiens) (UniProt Q13639); experiment: Displacement of [3H]GR113808 from human 5-HT4 receptor at 10 uM incubated for 90 mins under dark condition by microbeta scintillation counting method relative to control
[2] = biological target: 5-hydroxytryptamine receptor 7 (Homo sapiens) (UniProt P34969); experiment: Displacement of [3H]LSD from human 5-HT7A receptor expressed in HEK cell membranes at 10 uM incubated for 90 mins under dark condition by microbeta scintillation counting method relative to control; settings: HEK293
[3] = biological target: 5-hydroxytryptamine receptor 5A (Homo sapiens) (UniProt P47898); experiment: Displacement of [3H]LSD from human 5-HT5A receptor expressed in Flp-In-CHO cell membranes incubated for 90 mins under dark condition by microbeta scintillation counting method relative to control; set-up: concentration or dose not given beside the values
[4] = biological target: 5-hydroxytryptamine receptor 2A (Homo sapiens, UniProt P28223); experiment: Displacement of [3H]ketanserin from human 5-HT2A receptor expressed in HEK-T cell membranes at 10 uM incubated for 90 mins under dark condition by microbeta scintillation counting method relative to control
[5] = biological target: T1, 5-hydroxytryptamine receptor 2C (Homo sapiens, UniProt P28335); experiment: Displacement of [3H]mesulergine from human 5-HT2CR expressed in Flp-In HEK cell membranes incubated for 90 mins under dark condition by microbeta scintillation counting method; set-up: species or system HEK293
T1 sequence (P28335 whole entry): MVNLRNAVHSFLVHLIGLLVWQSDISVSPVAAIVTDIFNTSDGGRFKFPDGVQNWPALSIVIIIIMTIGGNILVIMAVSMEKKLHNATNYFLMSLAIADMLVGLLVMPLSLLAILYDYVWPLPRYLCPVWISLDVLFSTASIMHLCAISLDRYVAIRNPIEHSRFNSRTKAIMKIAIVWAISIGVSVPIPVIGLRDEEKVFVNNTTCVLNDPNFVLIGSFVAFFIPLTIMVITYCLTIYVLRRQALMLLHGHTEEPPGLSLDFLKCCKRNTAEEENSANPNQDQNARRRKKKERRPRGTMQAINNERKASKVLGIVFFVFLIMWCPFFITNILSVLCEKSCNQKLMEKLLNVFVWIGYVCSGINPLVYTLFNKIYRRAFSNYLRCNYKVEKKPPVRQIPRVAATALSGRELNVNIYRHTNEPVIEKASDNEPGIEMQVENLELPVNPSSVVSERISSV

[6] = biological target: T2, 5-hydroxytryptamine receptor 2C (Homo sapiens) (UniProt P28335); experiment: Displacement of [3H]mesulergine from human 5-HT2CR expressed in Flp-In HEK cell membranes at 10 uM incubated for 90 mins under dark condition by microbeta scintillation counting method relative to control; settings: HEK293
T2 sequence (whole entry): T1 sequence (P28335 whole entry)

Adenosine receptor A2a = Adenosine receptor A2a (Homo sapiens, UniProt P29274); experiment: Displacement of [3 H]2-[p-(2-carboxyethyl)phenyl-ethylamino]-5'-N-ethylcarboxamidoadenosine from recombinant human adenosine receptor A2A expressed in HEK293 cell membranes after 60 mins by liquid scintillation counting method
[7] = biological target: T3, Adenosine receptor A1 (Homo sapiens) (UniProt P30542); experiment: Agonist activity at recombinant human A1AR expressed in CHO cells assessed as inhibition of forskolin-stimulated cAMP accumulation at 10 uM after 15 mins relative to N6-cyclopentyladenosine; type: functional, cell-based
T3 sequence (whole entry): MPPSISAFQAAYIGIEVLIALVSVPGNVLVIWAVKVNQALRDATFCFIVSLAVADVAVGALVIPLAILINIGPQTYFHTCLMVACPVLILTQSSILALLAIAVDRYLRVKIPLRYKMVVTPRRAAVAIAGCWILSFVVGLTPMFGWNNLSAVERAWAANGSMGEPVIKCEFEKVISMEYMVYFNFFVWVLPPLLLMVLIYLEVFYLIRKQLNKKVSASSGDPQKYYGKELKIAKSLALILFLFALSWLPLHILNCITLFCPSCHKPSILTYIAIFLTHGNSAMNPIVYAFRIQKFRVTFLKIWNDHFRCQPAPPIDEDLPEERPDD

[8] = biological target: T1, 5-hydroxytryptamine receptor 2C; experiment: Antagonist activity at human 5-HT2CR expressed in Flp-In HEK cells assessed as inhibition of serotonin induced calcium mobilization preincubated for 5 to 10 mins followed 5-Ht addition by Fluo-4 dye based FLIPR assay; type: functional, cell-based, HEK293
[9] = biological target: T4, Adenosine receptor A3 (Mus musculus) (UniProt Q61618); experiment: Agonist activity at recombinant mouse A3AR expressed in HEK293 cells assessed as inhibition of forskolin-stimulated cAMP accumulation at 10 uM after 15 mins relative to adenosine-5'-N-ethyluronamide; type: functional, cell-based
T4 sequence (whole entry): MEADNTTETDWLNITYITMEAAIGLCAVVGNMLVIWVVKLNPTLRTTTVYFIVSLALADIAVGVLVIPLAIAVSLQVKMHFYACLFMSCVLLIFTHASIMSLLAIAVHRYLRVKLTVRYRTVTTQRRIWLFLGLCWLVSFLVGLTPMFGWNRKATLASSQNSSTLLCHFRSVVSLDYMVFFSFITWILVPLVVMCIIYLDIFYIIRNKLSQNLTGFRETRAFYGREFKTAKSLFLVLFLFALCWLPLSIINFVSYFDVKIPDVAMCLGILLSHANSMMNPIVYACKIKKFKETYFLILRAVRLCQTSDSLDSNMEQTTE

[10] = biological target: 5-hydroxytryptamine receptor 2B (Homo sapiens, UniProt P41595); type: functional, cell-based, HEK293
[11] = Half life of compound in fasted state simulated gastric fluid at pH 1.6; type: ADME, tissue-based, Stomach; settings: simulated gi fluid
[12] = Half life of compound in fasted state simulated intestinal fluid at pH 6.5; type: ADME; settings: simulated gi fluid
[13] = Metabolic stability in human plasma assessed as compound remaining measured after 120 mins; type: ADME, cell-free; settings: read-out: Stability
[14] = Metabolic stability in rat plasma assessed as compound remaining measured after 120 mins; type: ADME, cell-free; settings: 2 h
[15] = Metabolic stability in mouse plasma assessed as compound remaining measured after 120 mins; type: ADME, cell-free; settings: 2 h
[16] = Apparent permeability across apical side to basolateral side in human Caco2 cells; type: ADME, cell-based; settings: caco-2
[17] = Apparent permeability across basolateral side to apical side in human Caco2 cells; type: ADME, cell-based; settings: caco-2
Cytochrome P450 2C9 = Cytochrome P450 2C9 (Homo sapiens, UniProt P11712); experiment: Inhibition of CYP2C9 (unknown origin); type: ADME
[18] = Half life in human liver microsomes; type: ADME
[19] = Half life in rat liver microsomes; type: ADME
[20] = Half life in mouse liver microsomes; type: ADME
[21] = Intrinsic clearance in human liver microsomes; type: ADME
[22] = Metabolic stability in human liver microsomes assessed as compound remaining measured after 1 hr in presence of cofactor; type: ADME
[23] = Growth inhibition of human HepG2 cells at 30 uM; type: cell-based; settings: read-out: GI
[24] = Stability of compound in pH 1.6 fasted state simulated gastric fluid assessed as compound remaining measured after 2 hrs; type: ADME; settings: read-out: Stability
[25] = Half life in Sprague-Dawley rat at 1 mg/kg, iv administered as single dose; type: ADME, organism-based; settings: in vivo
[26] = Initial plasma concentration in Sprague-Dawley rat at 1 mg/kg, iv administered as single dose; type: ADME, organism-based; settings: in vivo
[27] = Volume of distribution at steady state in Sprague-Dawley rat at 1 mg/kg, iv administered as single dose; type: ADME, organism-based; settings: in vivo

Chain of 5-hydroxytryptamine receptor 7 (Homo sapiens) (P34969 whole entry): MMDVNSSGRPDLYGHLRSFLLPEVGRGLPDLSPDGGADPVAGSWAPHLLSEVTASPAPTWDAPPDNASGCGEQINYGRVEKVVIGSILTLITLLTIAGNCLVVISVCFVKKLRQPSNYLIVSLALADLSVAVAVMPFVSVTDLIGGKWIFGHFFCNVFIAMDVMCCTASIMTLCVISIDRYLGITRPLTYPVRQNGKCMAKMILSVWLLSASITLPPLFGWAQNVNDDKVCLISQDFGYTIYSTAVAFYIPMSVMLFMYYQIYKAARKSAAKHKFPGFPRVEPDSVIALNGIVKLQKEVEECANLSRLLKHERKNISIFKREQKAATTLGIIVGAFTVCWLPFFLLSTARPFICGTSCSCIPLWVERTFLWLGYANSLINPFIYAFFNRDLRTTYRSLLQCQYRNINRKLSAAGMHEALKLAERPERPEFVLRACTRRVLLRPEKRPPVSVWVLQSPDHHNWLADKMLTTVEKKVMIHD
Chain of 5-hydroxytryptamine receptor 5A (Homo sapiens) (P47898 whole entry): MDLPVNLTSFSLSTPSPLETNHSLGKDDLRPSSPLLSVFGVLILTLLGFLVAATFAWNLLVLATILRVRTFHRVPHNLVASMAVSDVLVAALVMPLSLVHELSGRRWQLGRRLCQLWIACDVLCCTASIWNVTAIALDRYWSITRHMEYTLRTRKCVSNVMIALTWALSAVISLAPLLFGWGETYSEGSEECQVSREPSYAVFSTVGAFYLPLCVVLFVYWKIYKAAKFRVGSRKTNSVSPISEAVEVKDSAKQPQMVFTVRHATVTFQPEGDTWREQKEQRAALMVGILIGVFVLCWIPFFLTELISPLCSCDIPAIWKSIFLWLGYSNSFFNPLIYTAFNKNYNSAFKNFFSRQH
Chain of 5-hydroxytryptamine receptor 2B (P41595 whole entry): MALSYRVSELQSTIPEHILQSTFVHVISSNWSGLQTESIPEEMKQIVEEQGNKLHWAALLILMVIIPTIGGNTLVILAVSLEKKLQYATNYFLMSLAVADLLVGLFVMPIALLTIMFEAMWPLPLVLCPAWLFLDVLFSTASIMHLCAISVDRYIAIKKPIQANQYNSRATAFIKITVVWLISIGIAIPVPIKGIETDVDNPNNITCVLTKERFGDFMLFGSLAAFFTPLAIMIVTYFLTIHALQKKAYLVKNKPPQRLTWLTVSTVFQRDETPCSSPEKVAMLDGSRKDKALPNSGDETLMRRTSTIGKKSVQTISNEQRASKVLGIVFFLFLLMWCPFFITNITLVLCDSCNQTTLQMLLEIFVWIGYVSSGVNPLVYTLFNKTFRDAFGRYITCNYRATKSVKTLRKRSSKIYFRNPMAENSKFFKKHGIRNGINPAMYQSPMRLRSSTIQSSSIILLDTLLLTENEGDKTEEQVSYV
Chain of 5-hydroxytryptamine receptor 4 (Homo sapiens) (Q13639 whole entry): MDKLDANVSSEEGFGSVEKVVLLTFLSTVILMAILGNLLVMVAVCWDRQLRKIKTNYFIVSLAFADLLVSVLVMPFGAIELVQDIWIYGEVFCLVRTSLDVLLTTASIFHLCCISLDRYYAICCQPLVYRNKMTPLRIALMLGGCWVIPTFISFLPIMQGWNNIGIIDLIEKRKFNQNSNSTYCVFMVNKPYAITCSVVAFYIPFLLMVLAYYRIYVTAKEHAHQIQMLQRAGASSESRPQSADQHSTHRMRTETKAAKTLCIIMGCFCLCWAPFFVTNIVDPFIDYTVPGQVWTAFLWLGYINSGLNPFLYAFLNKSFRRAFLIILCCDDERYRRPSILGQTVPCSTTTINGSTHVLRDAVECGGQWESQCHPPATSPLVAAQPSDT
Chain of 5-hydroxytryptamine receptor 2A (P28223 whole entry): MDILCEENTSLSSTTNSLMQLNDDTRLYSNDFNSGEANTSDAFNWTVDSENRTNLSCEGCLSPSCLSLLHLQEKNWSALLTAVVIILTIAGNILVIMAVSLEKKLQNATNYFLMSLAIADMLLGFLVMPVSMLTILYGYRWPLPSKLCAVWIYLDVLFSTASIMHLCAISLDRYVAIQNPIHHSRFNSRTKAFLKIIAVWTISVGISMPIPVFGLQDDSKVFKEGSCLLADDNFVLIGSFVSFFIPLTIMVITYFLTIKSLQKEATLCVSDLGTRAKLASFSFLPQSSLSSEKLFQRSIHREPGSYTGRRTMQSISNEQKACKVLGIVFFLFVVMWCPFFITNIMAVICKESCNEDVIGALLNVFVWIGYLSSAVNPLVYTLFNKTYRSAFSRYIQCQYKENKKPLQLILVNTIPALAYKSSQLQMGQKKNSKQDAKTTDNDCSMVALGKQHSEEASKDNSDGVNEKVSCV
Chain of Cytochrome P450 2C9 (P11712 whole entry): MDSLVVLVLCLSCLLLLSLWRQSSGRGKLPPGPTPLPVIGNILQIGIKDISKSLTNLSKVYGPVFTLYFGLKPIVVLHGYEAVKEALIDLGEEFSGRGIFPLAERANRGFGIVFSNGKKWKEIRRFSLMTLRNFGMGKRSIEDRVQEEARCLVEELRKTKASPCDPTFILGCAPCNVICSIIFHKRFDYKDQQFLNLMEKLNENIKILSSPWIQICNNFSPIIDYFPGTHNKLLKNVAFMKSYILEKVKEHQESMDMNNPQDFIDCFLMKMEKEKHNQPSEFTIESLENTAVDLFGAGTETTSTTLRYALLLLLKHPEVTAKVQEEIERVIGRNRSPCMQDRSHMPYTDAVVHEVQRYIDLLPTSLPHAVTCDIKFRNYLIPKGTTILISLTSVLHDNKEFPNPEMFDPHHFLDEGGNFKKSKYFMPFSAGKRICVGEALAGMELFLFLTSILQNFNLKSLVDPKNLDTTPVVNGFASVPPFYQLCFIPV
Chain of Adenosine receptor A2a (P29274 whole entry): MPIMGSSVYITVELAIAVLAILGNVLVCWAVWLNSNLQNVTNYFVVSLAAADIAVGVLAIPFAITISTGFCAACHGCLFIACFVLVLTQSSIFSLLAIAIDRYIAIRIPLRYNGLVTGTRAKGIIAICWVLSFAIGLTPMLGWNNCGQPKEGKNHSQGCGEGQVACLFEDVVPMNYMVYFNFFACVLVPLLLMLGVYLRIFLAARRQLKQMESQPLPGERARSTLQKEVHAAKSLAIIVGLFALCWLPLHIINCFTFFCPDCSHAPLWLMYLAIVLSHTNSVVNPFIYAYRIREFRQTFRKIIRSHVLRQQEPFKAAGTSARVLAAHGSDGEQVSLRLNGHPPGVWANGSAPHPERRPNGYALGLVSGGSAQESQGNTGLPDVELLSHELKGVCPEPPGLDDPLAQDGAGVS

| SMILES | inhibition [1] | inhibition [2] | inhibition [3] | inhibition [4] | Ki [5] | inhibition [6] | Ki (Adenosine receptor A2a) | Imax [7] | Ki [8] | Imax [9] | Ki [10] | t1/2 [11] | t1/2 [12] | remaining at 2 h [13] | Stability [14] | Stability [15] | Papp [16] | Papp [17] | IC50 (Cytochrome P450 2C9) | t1/2 [18] | other results |
| --- | --- | --- | --- | --- | --- | --- | --- | --- | --- | --- | --- | --- | --- | --- | --- | --- | --- | --- | --- | --- | --- |
| OC[C@@]12C[C@@H]1[C@@H](n1cnc3c(NC(C4CC4)C4CC4)nc(Cl)nc31)[C@H](O)[C@@H]2O | < 50% | < 50% | < 50% | < 10% | 0.084 µM | > 50% | 2.2 µM | 104% | 0.337 µM | – | – | – | – | – | – | – | – | – | – | – | – |
| CCOC(=O)[C@@]12C[C@@H]1[C@@H](n1cnc3c(NC(C4CC4)C4CC4)nc(Cl)nc31)[C@H](O)[C@@H]2O | < 50% | < 50% | < 50% | – | 0.03 µM | > 50% | – | 89% | 0.0039 µM | 26.3% | 0.0018 µM | – | – | – | – | – | – | – | – | – | – |
| COC(=O)[C@@]12C[C@@H]1[C@@H](n1cnc3c(NC(C4CC4)C4CC4)nc(Cl)nc31)[C@H](O)[C@@H]2O | < 50% | < 50% | < 50% | < 10% | 0.117 µM | > 50% | – | – | 0.0041 µM | 41.4% | 0.0032 µM | 2.08 h | > 8 h | 95.3 to 100% | 70.9% | 61% | 18.47 ×10⁻⁶ cm/s | 30.59 ×10⁻⁶ cm/s | 20.1 µM | > 2.33 h | t1/2 [19]: > 2.33 h; t1/2 [20]: > 2.33 h; CLH [21]: 0.77 µL/min/mg; Stability [22]: 94%; inhibition at 30 µM [23]: < 30%; remaining at 2 h [24]: 50%; t1/2 [25]: 3.56 h; C0 [26]: 349 ng/mL; Vdss [27]: 4.62 L/kg |
| CNC(=O)[C@@]12C[C@@H]1[C@@H](n1cnc3c(NC(C4CC4)C4CC4)nc(Cl)nc31)[C@H](O)[C@@H]2O | < 50% | < 50% | < 50% | < 10% | 0.269 µM | > 50% | 4.32 µM | – | 0.752 µM | 96.7% | 0.0044 µM | 2.2 h | > 8 h | 100 to 104% | 88.7% | 95% | 4.73 ×10⁻⁶ cm/s | 46.21 ×10⁻⁶ cm/s | > 30 µM | 2.17 h | t1/2 [19]: > 2.33 h; t1/2 [20]: > 2.42 h; CLH [21]: 1.75 µL/min/mg; Stability [22]: 87%; inhibition at 30 µM [23]: < 30%; remaining at 2 h [24]: 50%; t1/2 [25]: 2.89 h; C0 [26]: 1070 ng/mL; Vdss [27]: 3.16 L/kg |
